Experimental data: patent US20040022788A1, “Compositions and methods for promoting or inhibiting angiogenesis” (priority 1998, published 2004)
“Also recorded” adds a separate entry of the source.

Experiments:
[1] = target: T1, purified bovine F1 ATP synthase (Bos taurus, UniProt P00829+P19483); test: ELISA binding of angiostatin to purified F1 ATP synthase; conditions: double-reciprocal plots; 1 μg F1 ATP synthase per well; read-out: apparent dissociation constant Kd(app)
T1 construct: from tissue; host or cells: bovine heart mitochondria
Experimental: FIG. 11 is a bar graph showing the binding of angiostatin to purified bovine F1 ATP synthase. ELISA was used to determine concentration-dependent binding of angiostatin to a constant amount of F1 ATP synthase. Each well was coated with 1 μg of F1 ATP synthase prior to addition of […] amounts of angiostatin.
ELISA Binding Studies. Binding studies were performed with purified F1 subunit of bovine ATP synthase ([…]) passively adsorbed onto polyvinylchloride microtiter 96-well flat bottom plates (Dynex Technologies, Inc, Chantilly, Va.) as previously described (22). Briefly, plates were coated with protein in 50 μl of 0.1M Na2CO3, pH9.6 and incubated 2 h at 37° C. Non-specific sites were blocked by incubating with PBS, pH 7.0 containing 1% BSA for 30 min at rt. Binding studies were performed with increasing amounts of angiostatin (0-0.5 mg/ml) added in a […] for 1 h at 37° C. Plates were washed (0.1% Tween20/PBS, pH 7.0) and incubated with anti-human angiostatin antibody (goat IgG) (R&D Systems, Minneapolis, Minn.) (1:200 dil) overnight at 4° C. […] Plates were washed and 150 μl of OPD substrate was added to each well and the reaction stopped with 25 μl of H2SO4 (25%), before monitoring the absorbance at λ=492 nm in a Molecular Devices SpectraMax Plus-384 plate reader. […]

HUVEC = HUVEC cell proliferation assay (CyQUANT); type: cell-based, human; conditions: 1 μM; 24 hrs; n = 3
Experimental: Cell Proliferation Assay. HUVEC were plated at a density of 5000 cells/well in media depleted of fetal calf serum (FCS) overnight to allow the cells to become quiescent. Fresh media containing 5% FCS, 10 ng/ml basic fibroblast growth factor (bFGF) and 3 ng/ml vascular endothelial growth factor (VEGF) were added to the wells along with angiostatin (1.0 μM), antibody directed against the recombinant human alpha-subunit of ATP synthase (1:10 dil), antibody directed against the recombinant human beta-subunit of ATP synthase (1:10 dil), pre-immune serum (1:10 dil) or cycloheximide ([…]). Cell density was measured after 24 hrs using CyQUANT Cell Proliferation Assay Kit (Molecular Probes) in a fluorometric plate reader (Molecular Devices). The absorbance values used to calculate the percent proliferation of the cells ranged from 1.24 or 1.00 for treated and 2.57 for untreated.

[2] = target: T1, purified bovine F1 ATP synthase; test: F1 activity assay (ATPase, coupled NADH oxidation at 340 nm); type: biochemical; conditions: angiostatin
Experimental: FIG. 12 is a bar graph showing the inhibition of purified F1 ATP synthase by angiostatin. Purified F1 ATP synthase activity was measured spectrophotometrically at λ=340 nm by coupling the production of ADP to the oxidation of NADH via the pyruvate kinase and lactate dehydrogenase reaction in which a decrease in the absorbance at λ=340 nm indicates active protein (dark six membered rings). […] Control antibodies had no effect on activity (light circles and squares). Representative data shown, n=3.
Purification of Bovine Heart F1 ATP Synthase and F1 Activity Assay. Fresh bovine heart mitochondria were obtained as previously described (23) and sonicated to yield sub-mitochondrial particles (24). The F1 portion was separated from membrane-bound FO by chloroform extraction. The aqueous layer was centrifuged at 105,000×g to remove particulate matter before purifying over an S300 gel filtration column. […] ATPase activity was measured spectrophotometrically by monitoring at λ=340 nm by coupling the production of ADP to the oxidation of NADH via pyruvate kinase and lactate dehydrogenase reactions as described in Zheng,& Ramirez, Biochem Biophys Res Commun 261(25):499-503 (1999).

[3] = tested on: plasminogen binding sites on HUVEC; test: Competition binding assay, 125I-labeled plasminogen on HUVEC; design: species or system human; conditions: 1.0 μM 125I-labeled plasminogen; 100-fold molar excess of unlabeled angiostatin
Experimental: FIG. 2. Competition binding assay between plasminogen and angiostatin. HUVEC were plated at a density of 10,000 cells/well and incubated with 1.0 μM ^125I-labeled plasminogen in the presence of 100-fold molar excess of unlabeled angiostatin for 1 h at 4° C. Cells were washed and the remaining radioactivity was quantified by γ-counting.
Binding Assays. Ligands were radioiodinated by using Iodobeads (Pierce), repurified on L-lysine-Sepharose, eluted with 100 mM ε-aminocaproic acid, and dialyzed in PBS, pH 7.0 before use in binding assays. HUVEC were plated at a density of 5,000 or 10,000 cells/well and incubated with increasing concentrations of ^125I-labeled ligand in media containing 1% BSA for 1 h at 4° C. in 96-well plates. Wells were washed, and remaining bound radioactivity was quantified by using an LKB 1272 γ-radiation counter. Nonspecific binding was measured in the presence of excess unlabeled ligand.

[4] = target: T2, ATP synthase on the surface of HUVEC (Homo sapiens, UniProt P05496+P06576+P25705); test: Cell-surface ATP generation by bioluminescent luciferase assay; type: cell-based
T2 construct: endogenous in cells; host or cells: HUVEC (primary human umbilical vein endothelial cells)
Experimental: Cell-surface ATP Assay. […] Cells were treated with (1 μM) angiostatin or (0.1 mg/mL) oligomycin for 1 hr at 37° C. All cells were then incubated with 0.1 Ci ^32P and 0.1 Ci ([…]) [2,8-^3H]-ADP (NEN Life Sciences) for 1 min. Supernatants were removed and centrifuged before assaying for ATP production by thin layer chromatography (TLC) or by firefly luciferase assay. ATP Generation by Bioluminescent Luciferase Assay. […] Louis, Mo.). In this firefly luciferin-luciferase reaction, only ATP is readily detected since the enzymatic reaction of firefly luciferase to oxidize luciferin is specific for ATP relative to all other nucleotides. Samples were injected with the ATP assay mixture and recordings were made in a LuminoskanRS (LabSystems, Franklin, Mass.) over a 10 s period. The response in a given sample or standard was quantified as area under the peak of the response and averaged for duplicate determinations. Data are expressed as picomoles of ATP produced per cell based on standards determined under the same conditions with each experiment. Angiostatin was prepared as described in Sottrup-Jensen, […]., Petersen, T. E. & Magnusson, S. (1978) Progress in Chemical Fibrinolysis and Thrombolysis (Raven Press, New York).

Substance: angiostatin
- Kd [1]: 12 nM
- Percent Inhibition (+/− S.E.M.) of HUVEC proliferation (HUVEC): 57.2 +/− 1.16%
- inhibition of purified F1 ATPase activity [2]: completely inhibited
- inhibition of 125I-labeled plasminogen binding [3]: unaffected; also recorded: no inhibition; also recorded: not inhibited
- Percent Inhibition (+/− S.E.M.) of ATP generation ([4]; 1 μM, 50 μM ADP): 81%
- inhibition of ATP generation with increasing concentrations ([4]; increasing concentrations of angiostatin): dose-dependent manner
